For orientation: IC50 means the concentration that gives 50% inhibition. Read a high IC50 as weaker potency in that assay.

The first experiment concerns the target MTH1 (Homo sapiens, UniProt P36639). Put plainly: MTH1 enzymatic assay and IC50 value determination (malachite green). The format is biochemical. As to conditions: MTH1 4.8 nM, dGTP 100 μM, 15 minutes at 22° C.; group: between 2 μM and 10 μM. Put shortly: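 Malachite green detection of Pi after coupling dGTP hydrolysis to excess E. coli pyrophosphatase; 4.8 nM MTH1, 100 μM dGTP in Tris-acetate buffer with Mg2+ and DTT, 1% DMSO, 15 min at 22 °C. 12-point 1:3 compound series; absorbance at 630 nm; IC50 by four-parameter nonlinear regression.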
In turn, `Cc1cccc(-c2cc(N[C@H](C)C3CC3)nc(N)n2)c1C` [Example 166, 4-N-[(1R)-1-cyclopropylethyl]-6-(2,3-dimethylphenyl)pyrimidine-2,4-diamine] showed a concentration for half-maximal inhibition (IC50) of 2000 to 10000 nM.

Take `CC(C)(C)CNc1cc(-c2cccc(Cl)c2Cl)nc(N)n1` [Example 180, 6-(2,3-dichlorophenyl)-4-N-(2,2-dimethylpropyl)pyrimidine-2,4-diamine]: the IC50 fell in the range of 2000 to 10000 nM.

`CCCNc1cc(-c2ccc(S(C)(=O)=O)cc2)nc(N)n1` [Example 5, 6-(4-methanesulfonylphenyl)-4-N-propylpyrimidine-2,4-diamine]: the IC50 is 2000 to 10000 nM.

In turn, `C[C@@H]1[C@H]2C[C@@H](C[C@H]1Nc1cc(-c3cccc(Cl)c3Cl)nc(N)n1)C2(C)C` [Example 299, 6-(2,3-dichlorophenyl)-4-N-[(1R,2R,3R,5S)-2,6,6-trimethylbicyclo[3.1.1]heptan-3-yl]pyrimidine-2,4-diamine] came in with an IC50 of 2000 to 10000 nM.

`CNc1cc(-c2ccccn2)nc(N)n1` [Example 78, 4-N-methyl-6-(pyridin-2-yl)pyrimidine-2,4-diamine] registered a 50% inhibitory concentration (IC50) of 2000 to 10000 nM.

`Cc1cccc(-c2cc(NCCC(=O)N3CCOCC3)nc(N)n2)c1C` [Example 277, 3-{[2-amino-6-(2,3-dimethylphenyl)pyrimidin-4-yl]amino}-1-(morpholin-4-yl)propan-1-one] had an IC50 of 2000 to 10000 nM.

The experiment is the same for the next values; noted with them: MTH1 4.8 nM, dGTP 100 μM, 15 minutes at 22° C.; group: less than 200 nM.
For `Nc1nc(NCCc2ccc(Cl)cc2)cc(-c2cccc3ncccc23)n1` [Example 266, 4-N-[2-(4-chlorophenyl)ethyl]-6-(quinolin-5-yl)pyrimidine-2,4-diamine], the half-inhibitory concentration (IC50) is under 200 nM.

Turning to `CNc1cc(-c2cccc(NC(=O)/C=C/CN(C)C)c2)nc(N)n1` [Example 312, (2E)-N-{3-[2-Amino-6-(methylamino)pyrimidin-4-yl]phenyl}-4-(dimethylamino)but-2-enamide], the concentration for half-maximal inhibition (IC50) is under 200 nM.

The compound `CNc1cc(-c2cccc(NC(=O)CO)c2)nc(N)n1` [Example 322, N-{3-[2-Amino-6-(methylamino)pyrimidin-4-yl]phenyl}-2-hydroxyacetamide] registered an IC50 of under 200 nM.

In the case of `Cc1cccc(-c2cc(NCc3cnc(Cl)cn3)nc(N)n2)c1C` [Example 254, 4-N-[(5-chloropyrazin-2-yl)methyl]-6-(2,3-dimethylphenyl)pyrimidine-2,4-diamine], the concentration for half-maximal inhibition (IC50) was under 200 nM.

Consider `CNc1cc(-c2cccc(NC(=O)c3ccccc3O)c2)nc(N)n1` [Example 326, N-{3-[2-Amino-6-(methylamino)pyrimidin-4-yl]phenyl}-2-hydroxybenzamide], for which the 50% inhibitory concentration (IC50) was under 200 nM.

Take `CNc1cc(-c2ccnc(OC)c2Cl)nc(N)n1` [Example 120, 6-(3-chloro-2-methoxypyridin-4-yl)-4-N-methylpyrimidine-2,4-diamine]: the IC50 was under 200 nM.

`Nc1nc(NCC2CC2)cc(-c2ccccc2)n1` [Example 6, 4-N-(cyclopropylmethyl)-6-phenylpyrimidine-2,4-diamine] gave an IC50 of under 200 nM.

In turn, `Cc1cccc(-c2cc(NCCc3cccc(O)c3)nc(N)n2)c1C` [Example 269, 3-(2-{[2-amino-6-(2,3-dimethylphenyl)pyrimidin-4-yl]amino}ethyl)phenol] yielded a 50% inhibitory concentration (IC50) of under 200 nM.

Take `Cc1cccc(-c2cc(NCc3ccc(N(C)C)cc3)nc(N)n2)c1C` [Example 346, 4-N-{[4-(Dimethylamino)phenyl]methyl}-6-(2,3-dimethylphenyl)pyrimidine-2,4-diamine]: the 50% inhibitory concentration (IC50) was under 200 nM.

Regarding `CCCCCNc1cc(-c2cccc(C)c2C)nc(N)n1` [Example 135, 6-(2,3-dimethylphenyl)-4-N-pentylpyrimidine-2,4-diamine], the IC50 was under 200 nM.

For the compound `CNc1cc(-c2ccc3c(ccn3S(=O)(=O)c3ccccc3)c2)nc(N)n1` [Example 31, 6-[1-(benzenesulfonyl)-1H-indol-5-yl]-4-N-methylpyrimidine-2,4-diamine], the IC50 was under 200 nM.

In the case of `Cc1cccc(-c2cc(NCc3ccc(S(N)(=O)=O)cc3)nc(N)n2)c1C` [Example 336, 4-({[2-Amino-6-(2,3-dimethylphenyl)pyrimidin-4-yl]amino}methyl)benzene-1-sulfonamide], the IC50 was under 200 nM.

For the compound `Nc1nc(NC2CC2)cc(-c2ccc(Cl)c(Cl)c2Cl)n1` [Example 418, 4-N-Cyclopropyl-6-(2,3,4-trichlorophenyl)pyrimidine-2,4-diamine], the IC50 is under 200 nM.

With `CNc1cc(-c2cccc(C(F)(F)F)c2F)nc(N)n1` [Example 85, 6-[2-fluoro-3-(trifluoromethyl)phenyl]-4-N-methylpyrimidine-2,4-diamine], the half-maximal inhibitory concentration (IC50) is under 200 nM.

On to `Nc1nc(NCCc2ccc(Cl)cc2)cc(-c2cccc3[nH]ccc23)n1` [Example 231, 4-N-[2-(4-chlorophenyl)ethyl]-6-(1H-indol-4-yl)pyrimidine-2,4-diamine], for which the half-maximal inhibitory concentration (IC50) is under 200 nM.

`CNc1cc(-c2ccc(S(C)(=O)=O)cc2)nc(N)n1` [Example 43, 6-(4-methanesulfonylphenyl)-4-N-methylpyrimidine-2,4-diamine] returned an IC50 of under 200 nM.

Compound `CNc1cc(-c2cccc3[nH]ccc23)nc(N)n1` [Example 174, 6-(1H-indol-4-yl)-4-N-methylpyrimidine-2,4-diamine] gave an IC50 of under 200 nM.

`Cc1c(Cl)cccc1-c1cc(NC(C)C)nc(N)n1` [Example 246, 6-(3-chloro-2-methylphenyl)-4-N-(propan-2-yl)pyrimidine-2,4-diamine] had an IC50 of under 200 nM.

In the case of `Cc1noc(C)c1-c1cc(NCCc2ccc(Cl)cc2)nc(N)n1` [Example 453, 4-N-[2-(4-chlorophenyl)ethyl]-6-(dimethyl-1,2-oxazol-4-yl)pyrimidine-2,4-diamine], the concentration for half-maximal inhibition (IC50) is under 200 nM.

As for `Cc1cccc(-c2cc(NCCCNS(=O)(=O)c3cccc(F)c3)nc(N)n2)c1C` [Example 381, N-(3-{[2-Amino-6-(2,3-dimethylphenyl)pyrimidin-4-yl]amino}propyl)-3-fluorobenzene-1-sulfonamide], the IC50 is under 200 nM.

`CNc1cc(-c2cc(C(C)(C)C)ccc2OC)nc(N)n1` [Example 197, 6-(5-tert-butyl-2-methoxyphenyl)-4-N-methylpyrimidine-2,4-diamine] displayed a 50% inhibitory concentration (IC50) of under 200 nM.

`CNc1cc(-c2cc(F)c(F)cc2F)nc(N)n1` [Example 72, 4-N-methyl-6-(2,4,5-trifluorophenyl)pyrimidine-2,4-diamine] showed an IC50 of under 200 nM.

In the case of `Cc1cccc(-c2cc(NCCc3ccc(S(=O)(=O)N(C)C)cc3)nc(N)n2)c1C` [Example 416, 4-(2-{[2-amino-6-(2,3-dimethylphenyl)pyrimidin-4-yl]amino}ethyl)-N,N-dimethylbenzene-1-sulfonamide], the IC50 is under 200 nM.

In turn, `Cc1cccc(-c2cc(NCCc3c[nH]cn3)nc(N)n2)c1C` [Example 408, 6-(2,3-dimethylphenyl)-4-N-[2-(1H-imidazol-4-yl)ethyl]pyrimidine-2,4-diamine] registered a 50% inhibitory concentration (IC50) of under 200 nM.

On to `CNc1cc(-c2ccc(OC)c(Cl)c2Cl)nc(N)n1` [Example 98, 6-(2,3-dichloro-4-methoxyphenyl)-4-N-methylpyrimidine-2,4-diamine], for which the IC50 is under 200 nM.

Turning to `Cc1cccc(-c2cc(NCCOc3ccc(C#N)cc3)nc(N)n2)c1C` [Example 335, 4-(2-{[2-Amino-6-(2,3-dimethylphenyl)pyrimidin-4-yl]amino}ethoxy)benzonitrile], the IC50 was under 200 nM.

`CC1CCN(Cc2cccc(CNc3cc(-c4cccc(Cl)c4Cl)nc(N)n3)c2)CC1` [Example 300, 6-(2,3-Dichlorophenyl)-4-N-({3-[(4-methylpiperidin-1-yl)methyl]phenyl}methyl)-pyrimidine-2,4-diamine] returned a half-inhibitory concentration (IC50) of under 200 nM.

The compound `CNc1cc(-c2cn(S(=O)(=O)c3ccc(Cl)cc3)c3ccccc23)nc(N)n1` [Example 144, 6-[1-(4-chlorobenzenesulfonyl)-1H-indol-3-yl]-4-N-methylpyrimidine-2,4-diamine] showed an IC50 of under 200 nM.

Take `COc1cccc(NCCNc2cc(-c3cccc(C)c3C)nc(N)n2)c1` [Example 447, 6-(2,3-dimethylphenyl)-4-N-{2-[(3-methoxyphenyl)amino]ethyl}pyrimidine-2,4-diamine]: the IC50 is under 200 nM.

`Cc1cccc(-c2cc(NCCc3ccccn3)nc(N)n2)c1C` [Example 129, 6-(2,3-dimethylphenyl)-4-N-[2-(pyridin-2-yl)ethyl]pyrimidine-2,4-diamine]: the half-inhibitory concentration (IC50) is under 200 nM.

Compound `Cc1ccc(Cl)cc1-c1cc(NC2CCC2)nc(N)n1` [Example 220, 6-(5-chloro-2-methylphenyl)-4-N-cyclobutylpyrimidine-2,4-diamine] displayed a concentration for half-maximal inhibition (IC50) of under 200 nM.

`Cc1cccc(-c2cc(NCC3CC3)nc(N)n2)c1C` [Example 164, 4-N-(cyclopropylmethyl)-6-(2,3-dimethylphenyl)pyrimidine-2,4-diamine] came in with an IC50 of under 200 nM.

In the case of `CNc1cc(-c2cc(Cl)ccc2F)nc(N)n1` [Example 210, 6-(5-chloro-2-fluorophenyl)-4-N-methylpyrimidine-2,4-diamine], the IC50 is under 200 nM.

Compound `COc1ccccc1CCNc1cc(-c2cccc(C)c2C)nc(N)n1` [Example 126, 6-(2,3-dimethylphenyl)-4-N-[2-(2-methoxyphenyl)ethyl]pyrimidine-2,4-diamine] showed an IC50 of under 200 nM.

`COc1ccc(-c2cc(NC3CCC3)nc(N)n2)cc1` [Example 59, 4-N-cyclobutyl-6-(4-methoxyphenyl)pyrimidine-2,4-diamine] yielded an IC50 of under 200 nM.

On to `CNc1cc(-c2cccc(C)c2Cl)nc(N)n1` [Example 226, 6-(2-chloro-3-methylphenyl)-4-N-methylpyrimidine-2,4-diamine], for which the IC50 was under 200 nM.

Take `Cc1ncsc1CCNc1cc(-c2cccc(Cl)c2C)nc(N)n1` [Example 406, 6-(3-chloro-2-methylphenyl)-4-N-[2-(4-methyl-1,3-thiazol-5-yl)ethyl]pyrimidine-2,4-diamine]: the half-maximal inhibitory concentration (IC50) was under 200 nM.

These data come from US10174029B2, “Pyrimidine-2,4-diamine derivatives for treatment of cancer” (THOMAS HELLEDAYS STIFTELSE FOR MEDICINSK FORSKNING, priority 2012, dated 2019).
